For one series, the system named is GBM8401. Put plainly: MTT assay, GBM8401 tumor cell. Conditions: for Cell survival rate (%) GBM8401: concentration 10 μM, tumor cell. Background: Tetrazolium dyes change colour on reduction, which living cells bring about.
The subject of the next series is GBM8901. In words: MTT assay, GBM8901 tumor cell. Conditions: concentration 10 μM, tumor cell.
For a further series, the system named is SVG p12. Put plainly: MTT assay, SVG p12 normal cell. To be noted: for Cell survival rate (%) SVG p12: concentration 10 μM, normal cell.
Series [1] concerns SVG p12, GBM8401 and GBM8901. Put plainly: MTT assay, normal cell versus tumor cells (categories 39-3 to 39-7). Conditions: tumor cell survival rate less than 80%; for category 39-5: survival rate higher than 80% for normal cell SVG p12 and only inhibits growth of tumor cell GBM8901: FIG. 5C.

Turning to `CCCCSc1nc2ccc3c(c2[nH]1)C(=O)c1ccccc1C3=O` [f1-3, 2-(Butylthio)-1H-anthra[1,2-d]imidazole-6,11-dione], in the series with GBM8401, the “Cell survival rate (%) GBM8401” value worked out at 78 ± 16%. In the series on GBM8901, the “Cell survival rate (%) GBM8901” value amounted to 10 ± 4%. Also, in the series with SVG p12, the “Cell survival rate (%) SVG p12” value is reported as 98 ± 7%. The “category 39-5: survival rate higher than 80% for normal cell SVG p12 and only inhibits growth of tumor cell GBM8901” value in series [1] is on record as “in this category”.

On to `Cc1ccccc1CSc1nc2ccc3c(c2[nH]1)C(=O)c1ccccc1C3=O` [f1-4, 2-(2-Methylbenzylthio)-1H-anthra[1,2-d]imidazole-6,11-dione], for which, in the series on GBM8401, the “Cell survival rate (%) GBM8401” value came out at 25 ± 10%. The “Cell survival rate (%) GBM8901” value in the series with GBM8901 is given as 18 ± 8%. Besides, in the series on SVG p12, the “Cell survival rate (%) SVG p12” value turned out to be 58 ± 5%.

On to `COC(=O)CCCSc1nc2ccc3c(c2[nH]1)C(=O)c1ccccc1C3=O` [f1-5, Methyl-(6,11-dioxo-6,11-dihydro-1H-anthra[1,2-d]imidazol-2-ylthio)butanoate], for which, in the series with GBM8401, the “Cell survival rate (%) GBM8401” value was found to be 70 ± 10%. Further, the “Cell survival rate (%) GBM8901” value in the series on GBM8901 turned out to be 80 ± 2%. Besides, the “Cell survival rate (%) SVG p12” value in the series with SVG p12 worked out at 92 ± 5%.

Consider `COC(=O)/C=C/CSc1nc2ccc3c(c2[nH]1)C(=O)c1ccccc1C3=O` [f1-6, (E)-methyl 4-(6,11-dioxo-6,11-dihydro-1H-anthra[1,2-d]imidazol-2-ylthio)but-2-enoate], for which the “Cell survival rate (%) GBM8401” value with GBM8401 is 82 ± 7%. Further, in the series on GBM8901, the “Cell survival rate (%) GBM8901” value worked out at 44 ± 5%. Also, the “Cell survival rate (%) SVG p12” value in the series on SVG p12 is 90 ± 6%. For the same molecule, in series [1], the “category 39-5: survival rate higher than 80% for normal cell SVG p12 and only inhibits growth of tumor cell GBM8901” value is given as “in this category”.

As for `C#CCSc1nc2ccc3c(c2[nH]1)C(=O)c1ccccc1C3=O` [f1-7, 2-(prop-2-ynylthio)-1H-anthra[1,2-d]imidazole-6,11-dione], in the series on GBM8401, the “Cell survival rate (%) GBM8401” value is given as 38 ± 10%. In the series on GBM8901, the “Cell survival rate (%) GBM8901” value came to 7 ± 2%. Also, the “Cell survival rate (%) SVG p12” value in the series with SVG p12 came out at 98 ± 2%. In series [1], the “category 39-5: survival rate higher than 80% for normal cell SVG p12 and only inhibits growth of tumor cell GBM8901” value is reported as “in this category”.

With `O=C1c2ccccc2C(=O)c2c1ccc1nc(SCCCCCl)[nH]c21` [f1-8, 2-(4-Chlorobutylthio)-1H-anthra[1,2-d]imidazole-6,11-dione], the “Cell survival rate (%) GBM8401” value in the series with GBM8401 stood at 43 ± 10%. Moreover, the “Cell survival rate (%) GBM8901” value in the series with GBM8901 is 65 ± 10%. In addition, in the series on SVG p12, the “Cell survival rate (%) SVG p12” value is reported as 66 ± 3%.

Regarding `O=C1c2ccccc2C(=O)c2c1ccc1nc(SCCCCCCCl)[nH]c21` [f1-10, 2-(6-Chlorohexylthio)-1H-anthra[1,2-d]imidazole-6,11-dione], the “Cell survival rate (%) GBM8401” value with GBM8401 turned out to be 78 ± 5%. Also, the “Cell survival rate (%) GBM8901” value in the series with GBM8901 stood at 60 ± 2%. Further, in the series with SVG p12, the “Cell survival rate (%) SVG p12” value is recorded as 81 ± 1%. The “category 39-3: survival rate higher than 80% for normal cell SVG p12 and inhibits growth of both tumor cells GBM8401 and GBM8901” value in series [1] (FIG. 5A) is reported as “in this category”.

`O=C1c2ccccc2C(=O)c2c1ccc1nc(SCCN3CCOCC3)[nH]c21` [f1-13, 2-(2-morpholinoethylthio)-1H-anthra[1,2-d]imidazole-6,11-dione]: the “Cell survival rate (%) GBM8401” value with GBM8401 is on record as 38 ± 9%. Besides, the “Cell survival rate (%) GBM8901” value in the series on GBM8901 is on record as 68 ± 2%. The “Cell survival rate (%) SVG p12” value in the series on SVG p12 is reported as 62 ± 8%.

`O=C1c2ccccc2C(=O)c2c1ccc1nc(SCCCN3CCCCC3)[nH]c21` [f1-14, 2-(3-(piperidin-1-yl)propylthio)-1H-anthra[1,2-d]imidazole-6,11-dione]: the “Cell survival rate (%) GBM8401” value in the series with GBM8401 was found to be 6 ± 10%. The “Cell survival rate (%) GBM8901” value with GBM8901 was found to be 10 ± 2%. Moreover, the “Cell survival rate (%) SVG p12” value with SVG p12 came to 12 ± 1%.

In the case of `O=C1c2ccccc2C(=O)c2c1ccc1nc(SCC(=O)N3CCOCC3)[nH]c21` [f1-16, 2-(2-morpholino-2-oxoethylthio)-1H-anthra[1,2-d]imidazole-6,11-dione], in the series with GBM8401, the “Cell survival rate (%) GBM8401” value was 30 ± 9%. Besides, the “Cell survival rate (%) GBM8901” value in the series with GBM8901 is 39 ± 2%. Besides, the “Cell survival rate (%) SVG p12” value with SVG p12 came out at 60 ± 1%.

Take `O=C1c2ccccc2C(=O)c2c1ccc1nc(SCCC(=O)N3CCOCC3)[nH]c21` [f1-17, 2-(3-morpholino-3-oxopropylthio)-1H-anthra[1,2-d]imidazole-6,11-dione]: the “Cell survival rate (%) GBM8401” value with GBM8401 came out at 23 ± 10%. The “Cell survival rate (%) GBM8901” value in the series on GBM8901 is 48 ± 1%. Further, in the series with SVG p12, the “Cell survival rate (%) SVG p12” value amounted to 80 ± 0%. Also, the “without cell toxicity for normal cell SVGP p12” value in the series on SVG p12 (survival rate higher than 80%) is “without cell toxicity for normal cell SVGP p12”. The “category 39-4: survival rate higher than 80% for normal cell SVG p12 and only inhibits growth of tumor cell GBM8401” value in series [1] (FIG. 5B) is “in this category”.

Take `CCN(CC)C(=O)CCSc1nc2ccc3c(c2[nH]1)C(=O)c1ccccc1C3=O` [f1-20, 3-(6,11-dioxo-6,11-dihydro-1H-anthra[1,2-d]imidazol-2-ylthio)-N,N-diethylpropanamide]: the “Cell survival rate (%) GBM8401” value in the series on GBM8401 is reported as 28 ± 11%. The “Cell survival rate (%) GBM8901” value in the series on GBM8901 is listed as 30 ± 2%. For the same molecule, the “Cell survival rate (%) SVG p12” value in the series with SVG p12 is 46 ± 2%.

For `O=C1c2ccccc2C(=O)c2c1ccc1nc(SCCC(=O)N3CCCC3)[nH]c21` [f1-22, 2-(3-oxo-3-(pyrrolidin-1-yl)propylthio)-1H-anthra[1,2-d]imidazole-6,11-dione], the “Cell survival rate (%) GBM8401” value with GBM8401 is 40 ± 15%. Besides, the “Cell survival rate (%) GBM8901” value in the series on GBM8901 is listed as 28 ± 2%. For the same molecule, the “Cell survival rate (%) SVG p12” value in the series with SVG p12 was 80 ± 3%. Further, in series [1], the “category 39-5: survival rate higher than 80% for normal cell SVG p12 and only inhibits growth of tumor cell GBM8901” value is on record as “in this category”.

With `CCCN(CCC)C(=O)CSc1nc2ccc3c(c2[nH]1)C(=O)c1ccccc1C3=O` [f1-23, 2-(6,11-dioxo-6,11-dihydro-1H-anthra[1,2-d]imidazol-2-ylthio)-N,N-dipropylacetamide], the “Cell survival rate (%) GBM8401” value in the series with GBM8401 turned out to be 82 ± 15%. In addition, the “Cell survival rate (%) GBM8901” value in the series on GBM8901 is 18 ± 0%. Further, the “Cell survival rate (%) SVG p12” value with SVG p12 amounted to 80 ± 7%. Further, in series [1], the “category 39-5: survival rate higher than 80% for normal cell SVG p12 and only inhibits growth of tumor cell GBM8901” value was “in this category”.

On to `O=C(CCc1ccccc1)Sc1nc2ccc3c(c2[nH]1)C(=O)c1ccccc1C3=O` [f2-4, S-6,11-dioxo-6,11-dihydro-1H-anthra[1,2-d]imidazol-2-yl 3-phenylpropanethioate], for which the “Cell survival rate (%) GBM8401” value in the series on GBM8401 was found to be 62 ± 15%. Further, the “Cell survival rate (%) GBM8901” value in the series with GBM8901 came out at 72 ± 6%. Moreover, the “Cell survival rate (%) SVG p12” value with SVG p12 was 61 ± 2%.

In the case of `O=C1c2ccccc2C(=O)c2c1ccc1nc(SC(=O)N3CCCC3)[nH]c21` [f2-7, S-6,11-dioxo-6,11-dihydro-1H-anthra[1,2-d]imidazol-2-yl pyrrolidine-1-carbothioate], the “Cell survival rate (%) GBM8401” value in the series on GBM8401 turned out to be 72 ± 18%. Further, in the series with GBM8401 (survival rate less than 80%), the “inhibitory effect against tumor cell GBM8401” value is reported as “exhibited inhibitory effect against tumor cell GBM8401”. Moreover, the “Cell survival rate (%) GBM8901” value with GBM8901 worked out at 42 ± 7%. Also, the “Cell survival rate (%) SVG p12” value in the series with SVG p12 is reported as 62 ± 5%.

Consider `O=C1c2ccccc2C(=O)c2c1ccc1nc(SC(=O)N3CCCCC3)[nH]c21` [f2-8, S-6,11-dioxo-6,11-dihydro-1H-anthra[1,2-d]imidazol-2-yl piperidine-1-carbothioate], for which the “Cell survival rate (%) GBM8401” value in the series with GBM8401 stood at 99 ± 25%. In the series with GBM8901, the “Cell survival rate (%) GBM8901” value came out at 100 ± 0%. For the same molecule, the “Cell survival rate (%) SVG p12” value with SVG p12 stood at 92 ± 3%.

The values above are taken from patent publication US8067454B2, “Thio-substituted Anthra [1, 2-d] imidazole- 6, 11-dione derivatives, preparation method and application thereof” (National Defense Medical Center, priority 2010, dated 2011).
